# Read-outs that look alike come from different tables or passages of the source.
# Experiments:
# [1] = assay type: physicochemical; details: stored at room temperature (21-25° C.)
# Experimental: At each time period, 0.05 g of powder was dissolved in 10 ml-15 of ethanol, diluted to fall within the analytical range, and injected into the LCMSMS for analysis.
# [2] = Stability of cannabinoid and Vitamin E components of Beverage 2 (AB Red) stored at 8° C. and 21-25° C., LCMSMS over 570 days; details: 8° C.
# Experimental: The LCMSMS was calibrated for 0-50 ng/ml cannabinoids with the same resin material used in the preparation of the concentrates. At each time period, 100 μml of beverage was diluted with 10 ml of methanol and injected into the LCMSMS for analysis.
smiles,measurement,setting,value
"C=C(C)[C@@H]1CCC(C)=C[C@H]1c1c(O)cc(CCCCC)c(C(=O)O)c1O [CBDA, cannabidiolic acid]",Stability in Powder Concentrate (content by LCMSMS),[1]; day 0,0.410 mg/g powder
same,Stability in Powder Concentrate (content by LCMSMS),[1]; day 1,0.412 mg/g powder
same,Stability in Powder Concentrate (content by LCMSMS),[1]; day 2,0.407 mg/g powder
same,Stability in Powder Concentrate (content by LCMSMS),[1]; day 3,0.406 mg/g powder
same,Stability in Powder Concentrate (content by LCMSMS),[1]; day 5,0.414 mg/g powder
same,Stability in Powder Concentrate (content by LCMSMS),[1]; day 8,0.415 mg/g powder
same,Stability in Powder Concentrate (content by LCMSMS),[1]; day 9,0.410 mg/g powder
same,Stability in Powder Concentrate (content by LCMSMS),[1]; day 10,0.418 mg/g powder
same,Stability in Powder Concentrate (content by LCMSMS),[1]; day 11,0.415 mg/g powder
same,Stability in Powder Concentrate (content by LCMSMS),[1]; day 12,0.396 mg/g powder
same,Stability in Powder Concentrate (content by LCMSMS),[1]; day 15,0.399 mg/g powder
same,Stability in Powder Concentrate (content by LCMSMS),[1]; day 16,0.427 mg/g powder
same,Stability in Powder Concentrate (content by LCMSMS),[1]; day 17,0.421 mg/g powder
same,Stability in Powder Concentrate (content by LCMSMS),[1]; day 18,0.418 mg/g powder
same,Stability in Powder Concentrate (content by LCMSMS),[1]; day 19,0.414 mg/g powder
same,Stability in Powder Concentrate (content by LCMSMS),[1]; day 22,0.419 mg/g powder
same,Stability in Powder Concentrate (content by LCMSMS),[1]; day 23,0.396 mg/g powder
same,Stability in Powder Concentrate (content by LCMSMS),[1]; day 24,0.403 mg/g powder
same,Stability in Powder Concentrate (content by LCMSMS),[1]; day 25,0.401 mg/g powder
same,Stability in Powder Concentrate (content by LCMSMS),[1]; day 26,0.397 mg/g powder
same,Stability in Powder Concentrate (content by LCMSMS),[1]; day 29,0.426 mg/g powder
same,Stability in Powder Concentrate (content by LCMSMS),[1]; day 30,0.405 mg/g powder
same,Stability in Powder Concentrate (content by LCMSMS),[1]; day 60,0.418 mg/g powder
same,Stability in Powder Concentrate (content by LCMSMS),[1]; day 90,0.413 mg/g powder
same,Stability in Powder Concentrate (content by LCMSMS),[1]; day 120,0.403 mg/g powder
same,Stability in Powder Concentrate (content by LCMSMS),[1]; day 150,0.412 mg/g powder
same,Stability in Powder Concentrate (content by LCMSMS),[1]; day 180,0.422 mg/g powder
same,Stability in Powder Concentrate (content by LCMSMS),[1]; day 210,0.427 mg/g powder
same,Stability in Powder Concentrate (content by LCMSMS),[1]; day 240,0.417 mg/g powder
same,Stability in Powder Concentrate (content by LCMSMS),[1]; day 270,0.424 mg/g powder
same,Stability in Powder Concentrate (content by LCMSMS),[1]; day 300,0.409 mg/g powder
same,Stability in Powder Concentrate (content by LCMSMS),[1]; day 330,0.424 mg/g powder
same,Stability in Powder Concentrate (content by LCMSMS),[1]; day 360,0.413 mg/g powder
same,Stability in Powder Concentrate (content by LCMSMS),[1]; day 390,0.407 mg/g powder
same,Stability in Powder Concentrate (content by LCMSMS),[1]; day 420,0.420 mg/g powder
same,Stability in Powder Concentrate (content by LCMSMS),[1]; day 450,0.398 mg/g powder
same,Stability in Powder Concentrate (content by LCMSMS),[1]; day 480,0.418 mg/g powder
same,Stability in Powder Concentrate (content by LCMSMS),[1]; day 510,0.411 mg/g powder
same,Stability in Powder Concentrate (content by LCMSMS),[1]; day 540,0.425 mg/g powder
same,Stability in Powder Concentrate (content by LCMSMS),[1]; day 570,0.408 mg/g powder
same,Stability of Cannabinoids in AB Red,[2]; 0 days,1.68 µg/mL
same,Stability of Cannabinoids in AB Red,[2]; 1 days,1.69 µg/mL
same,Stability of Cannabinoids in AB Red,[2]; 2 days,1.66 µg/mL
same,Stability of Cannabinoids in AB Red,[2]; 3 days,1.64 µg/mL
same,Stability of Cannabinoids in AB Red,[2]; 5 days,1.67 µg/mL
same,Stability of Cannabinoids in AB Red,[2]; 8 days,1.68 µg/mL
same,Stability of Cannabinoids in AB Red,[2]; 9 days,1.65 µg/mL
same,Stability of Cannabinoids in AB Red,[2]; 10 days,1.67 µg/mL
same,Stability of Cannabinoids in AB Red,[2]; 11 days,1.65 µg/mL
same,Stability of Cannabinoids in AB Red,[2]; 12 days,1.68 µg/mL
same,Stability of Cannabinoids in AB Red,[2]; 15 days,1.67 µg/mL
same,Stability of Cannabinoids in AB Red,[2]; 16 days,1.69 µg/mL
same,Stability of Cannabinoids in AB Red,[2]; 17 days,1.64 µg/mL
same,Stability of Cannabinoids in AB Red,[2]; 18 days,1.65 µg/mL
same,Stability of Cannabinoids in AB Red,[2]; 19 days,1.68 µg/mL
same,Stability of Cannabinoids in AB Red,[2]; 22 days,1.70 µg/mL
same,Stability of Cannabinoids in AB Red,[2]; 23 days,1.63 µg/mL
same,Stability of Cannabinoids in AB Red,[2]; 24 days,1.70 µg/mL
same,Stability of Cannabinoids in AB Red,[2]; 25 days,1.63 µg/mL

# Reference: patent US20240415914A1, “Water Dispersible Cannabinoid Compositions” (priority 2021, published 2024)
